Experimental data reported in ChEMBL document CHEMBL1909046, “DrugMatrix in vitro pharmacology data”.

test system: not listed separately; experiment: DRUGMATRIX: Phosphodiesterase PDE4 enzyme inhibition (substrate: [3H]cAMP + cAMP); settings: u-937; Not Active = under 50% inhibition at 10 µM

| Compound | IC50 | Ki |
| --- | --- | --- |
| O=C1c2ccccc2C(=O)C1c1ccccc1 [PHENINDIONE] | Not Active | Not Active |
| Clc1cc(Cl)c(OCC#CI)cc1Cl [HALOPROGIN] | Not Active | Not Active |
| C[C@H]1C[C@H]2[C@@H]3CCC4=CC(=O)C=C[C@]4(C)[C@@]3(F)[C@@H](O)C[C@]2(C)[C@@]1(O)C(=O)CO [BETAMETHASONE] | Not Active | Not Active |
| COc1ccc(Cl)cc1C(=O)NCCc1ccc(S(=O)(=O)NC(=O)NC2CCCCC2)cc1 [GLYBURIDE] | Not Active | Not Active |
| CC1(COc2ccc(CC3SC(=O)NC3=O)cc2)CCCCC1 (stereo unspecified) [CIGLITAZONE] | Not Active | Not Active |
| Cc1ccnc2c1NC(=O)c1cccnc1N2C1CC1 [NEVIRAPINE] | Not Active | Not Active |
| CNC[C@H](O)c1ccc(O)c(O)c1 [EPINEPHRINE] | Not Active | Not Active |
| CN(Cc1cc(Br)cc(Br)c1N)C1CCCCC1 [BROMHEXINE] | Not Active | Not Active |
| COPPER(II) OXIDE | Not Active | Not Active |
| CC(C)Cc1ccc([C@H](C)C(=O)O)cc1 [DEXIBUPROFEN] | Not Active | Not Active |
| O=C(O)CCc1nc(-c2ccccc2)c(-c2ccccc2)o1 [OXAPROZIN] | Not Active | Not Active |
| Cc1cc(C(C)(C)C)c(O)c(C)c1CC1=NCCN1 [OXYMETAZOLINE] | Not Active | Not Active |

biological target: Protein phosphatase 3 catalytic subunit alpha (Homo sapiens, UniProt Q08209); experiment: not given; parameters: species or system Escherichia coli; settings: not given;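 further: inhibition of calcineurin (PP2B) enzyme activity, measured with DiFMUP as the substrate; in other assays of this panel Not Active means under 50% inhibition at 10 µM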

| Compound | IC50 | Ki |
| --- | --- | --- |
| O=C1c2ccccc2C(=O)C1c1ccccc1 [PHENINDIONE] | Not Active |  |
| Clc1cc(Cl)c(OCC#CI)cc1Cl [HALOPROGIN] | Not Active |  |
| C[C@H]1C[C@H]2[C@@H]3CCC4=CC(=O)C=C[C@]4(C)[C@@]3(F)[C@@H](O)C[C@]2(C)[C@@]1(O)C(=O)CO [BETAMETHASONE] | Not Active |  |
| COc1ccc(Cl)cc1C(=O)NCCc1ccc(S(=O)(=O)NC(=O)NC2CCCCC2)cc1 [GLYBURIDE] | Not Active |  |
| CC1(COc2ccc(CC3SC(=O)NC3=O)cc2)CCCCC1 (stereo unspecified) [CIGLITAZONE] | Not Active |  |
| Cc1ccnc2c1NC(=O)c1cccnc1N2C1CC1 [NEVIRAPINE] | Not Active |  |
| CNC[C@H](O)c1ccc(O)c(O)c1 [EPINEPHRINE] | Not Active |  |
| CN(Cc1cc(Br)cc(Br)c1N)C1CCCCC1 [BROMHEXINE] | Not Active |  |
| COPPER(II) OXIDE | Not Active | Not Active |
| CC(C)Cc1ccc([C@H](C)C(=O)O)cc1 [DEXIBUPROFEN] | Not Active |  |
| O=C(O)CCc1nc(-c2ccccc2)c(-c2ccccc2)o1 [OXAPROZIN] | Not Active |  |
| Cc1cc(C(C)(C)C)c(O)c(C)c1CC1=NCCN1 [OXYMETAZOLINE] | Not Active |  |

biological target: T1, C-C chemokine receptor type 4 (Homo sapiens, UniProt P51679); experiment: not given; type: cell membranes, Chem-1, Membrane; settings: chem-1; further: in other assays of this panel Not Active means under 50% inhibition at 10 µM
T1 sequence (P51679 whole entry): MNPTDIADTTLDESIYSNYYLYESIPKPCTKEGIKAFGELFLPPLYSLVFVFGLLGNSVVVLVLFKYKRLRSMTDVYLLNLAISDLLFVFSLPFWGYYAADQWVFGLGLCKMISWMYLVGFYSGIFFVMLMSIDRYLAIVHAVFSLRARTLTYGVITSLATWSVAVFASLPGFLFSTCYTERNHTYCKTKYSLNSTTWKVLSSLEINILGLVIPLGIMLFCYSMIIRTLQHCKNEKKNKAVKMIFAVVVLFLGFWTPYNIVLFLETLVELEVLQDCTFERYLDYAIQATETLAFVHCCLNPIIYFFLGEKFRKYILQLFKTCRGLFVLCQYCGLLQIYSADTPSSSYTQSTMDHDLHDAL

| Compound | IC50 | Ki |
| --- | --- | --- |
| O=C1c2ccccc2C(=O)C1c1ccccc1 [PHENINDIONE] | Not Active |  |
| Clc1cc(Cl)c(OCC#CI)cc1Cl [HALOPROGIN] | Not Active |  |
| C[C@H]1C[C@H]2[C@@H]3CCC4=CC(=O)C=C[C@]4(C)[C@@]3(F)[C@@H](O)C[C@]2(C)[C@@]1(O)C(=O)CO [BETAMETHASONE] | Not Active |  |
| COc1ccc(Cl)cc1C(=O)NCCc1ccc(S(=O)(=O)NC(=O)NC2CCCCC2)cc1 [GLYBURIDE] | Not Active |  |
| CC1(COc2ccc(CC3SC(=O)NC3=O)cc2)CCCCC1 (stereo unspecified) [CIGLITAZONE] | Not Active |  |
| Cc1ccnc2c1NC(=O)c1cccnc1N2C1CC1 [NEVIRAPINE] | Not Active |  |
| CNC[C@H](O)c1ccc(O)c(O)c1 [EPINEPHRINE] | Not Active |  |
| CN(Cc1cc(Br)cc(Br)c1N)C1CCCCC1 [BROMHEXINE] | Not Active |  |
| COPPER(II) OXIDE | Not Active | Not Active |
| CC(C)Cc1ccc([C@H](C)C(=O)O)cc1 [DEXIBUPROFEN] | Not Active |  |
| O=C(O)CCc1nc(-c2ccccc2)c(-c2ccccc2)o1 [OXAPROZIN] | Not Active |  |
| Cc1cc(C(C)(C)C)c(O)c(C)c1CC1=NCCN1 [OXYMETAZOLINE] | Not Active |  |

biological target: T2, Alpha-2C adrenergic receptor (Homo sapiens, UniProt P18825); experiment: DRUGMATRIX: Adrenergic Alpha-2C radioligand binding (ligand: [3H] MK-912); type: cell membranes, Sf9, Membrane; settings: read-out: IC50
T2 sequence (P18825 whole entry): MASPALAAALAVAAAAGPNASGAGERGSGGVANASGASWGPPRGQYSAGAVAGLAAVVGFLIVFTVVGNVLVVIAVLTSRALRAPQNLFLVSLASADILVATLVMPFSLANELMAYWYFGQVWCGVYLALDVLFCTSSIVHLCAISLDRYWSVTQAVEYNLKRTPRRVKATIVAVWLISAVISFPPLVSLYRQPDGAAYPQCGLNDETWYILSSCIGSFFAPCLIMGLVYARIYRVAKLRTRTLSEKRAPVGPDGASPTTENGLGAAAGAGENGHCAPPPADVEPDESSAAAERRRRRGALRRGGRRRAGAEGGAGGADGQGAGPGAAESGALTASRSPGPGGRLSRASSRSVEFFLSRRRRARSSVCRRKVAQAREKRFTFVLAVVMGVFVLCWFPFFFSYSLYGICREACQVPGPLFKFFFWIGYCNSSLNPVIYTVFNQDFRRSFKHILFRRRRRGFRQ

| Compound | IC50 [nM] |
| --- | --- |
| Clc1cc(Cl)c(OCC#CI)cc1Cl [HALOPROGIN] | 4040 |

same assay, conditions: read-out: Ki

| Compound | Ki [nM] |
| --- | --- |
| Clc1cc(Cl)c(OCC#CI)cc1Cl [HALOPROGIN] | 588 |

same assay, conditions: sf9

| Compound | IC50 | Ki |
| --- | --- | --- |
| O=C1c2ccccc2C(=O)C1c1ccccc1 [PHENINDIONE] | Not Active |  |
| C[C@H]1C[C@H]2[C@@H]3CCC4=CC(=O)C=C[C@]4(C)[C@@]3(F)[C@@H](O)C[C@]2(C)[C@@]1(O)C(=O)CO [BETAMETHASONE] | Not Active |  |
| COc1ccc(Cl)cc1C(=O)NCCc1ccc(S(=O)(=O)NC(=O)NC2CCCCC2)cc1 [GLYBURIDE] | Not Active |  |
| CC1(COc2ccc(CC3SC(=O)NC3=O)cc2)CCCCC1 (stereo unspecified) [CIGLITAZONE] | Not Active |  |
| Cc1ccnc2c1NC(=O)c1cccnc1N2C1CC1 [NEVIRAPINE] | Not Active |  |
| CN(Cc1cc(Br)cc(Br)c1N)C1CCCCC1 [BROMHEXINE] | Not Active |  |
| COPPER(II) OXIDE | Not Active | Not Active |
| CC(C)Cc1ccc([C@H](C)C(=O)O)cc1 [DEXIBUPROFEN] | Not Active |  |
| O=C(O)CCc1nc(-c2ccccc2)c(-c2ccccc2)o1 [OXAPROZIN] | Not Active |  |

test system: not listed separately; experiment: DRUGMATRIX: Glutamate, AMPA radioligand binding (ligand: [3H] AMPA); type: cell membranes, Rattus norvegicus, Wistar, Cerebral cortex, Membrane; settings: Not Active = under 50% inhibition at 10 µM

| Compound | IC50 | Ki |
| --- | --- | --- |
| O=C1c2ccccc2C(=O)C1c1ccccc1 [PHENINDIONE] | Not Active | Not Active |
| Clc1cc(Cl)c(OCC#CI)cc1Cl [HALOPROGIN] | Not Active | Not Active |
| C[C@H]1C[C@H]2[C@@H]3CCC4=CC(=O)C=C[C@]4(C)[C@@]3(F)[C@@H](O)C[C@]2(C)[C@@]1(O)C(=O)CO [BETAMETHASONE] | Not Active | Not Active |
| COc1ccc(Cl)cc1C(=O)NCCc1ccc(S(=O)(=O)NC(=O)NC2CCCCC2)cc1 [GLYBURIDE] | Not Active | Not Active |
| CC1(COc2ccc(CC3SC(=O)NC3=O)cc2)CCCCC1 (stereo unspecified) [CIGLITAZONE] | Not Active | Not Active |
| Cc1ccnc2c1NC(=O)c1cccnc1N2C1CC1 [NEVIRAPINE] | Not Active | Not Active |
| CNC[C@H](O)c1ccc(O)c(O)c1 [EPINEPHRINE] | Not Active | Not Active |
| CN(Cc1cc(Br)cc(Br)c1N)C1CCCCC1 [BROMHEXINE] | Not Active | Not Active |
| COPPER(II) OXIDE | Not Active | Not Active |
| CC(C)Cc1ccc([C@H](C)C(=O)O)cc1 [DEXIBUPROFEN] | Not Active | Not Active |
| O=C(O)CCc1nc(-c2ccccc2)c(-c2ccccc2)o1 [OXAPROZIN] | Not Active | Not Active |
| Cc1cc(C(C)(C)C)c(O)c(C)c1CC1=NCCN1 [OXYMETAZOLINE] | Not Active | Not Active |

test system: not listed separately; experiment: DRUGMATRIX: Calcium Channel Type L, Dihydropyridine radioligand binding (ligand: [3H] Nitrendipine); type: cell membranes, Rattus norvegicus, Wistar, Cerebral cortex, Membrane; settings: Not Active = under 50% inhibition at 10 µM

| Compound | IC50 | Ki |
| --- | --- | --- |
| O=C1c2ccccc2C(=O)C1c1ccccc1 [PHENINDIONE] | Not Active | Not Active |
| Clc1cc(Cl)c(OCC#CI)cc1Cl [HALOPROGIN] | Not Active | Not Active |
| C[C@H]1C[C@H]2[C@@H]3CCC4=CC(=O)C=C[C@]4(C)[C@@]3(F)[C@@H](O)C[C@]2(C)[C@@]1(O)C(=O)CO [BETAMETHASONE] | Not Active | Not Active |
| COc1ccc(Cl)cc1C(=O)NCCc1ccc(S(=O)(=O)NC(=O)NC2CCCCC2)cc1 [GLYBURIDE] | Not Active | Not Active |
| CC1(COc2ccc(CC3SC(=O)NC3=O)cc2)CCCCC1 (stereo unspecified) [CIGLITAZONE] | Not Active | Not Active |
| Cc1ccnc2c1NC(=O)c1cccnc1N2C1CC1 [NEVIRAPINE] | Not Active | Not Active |
| CNC[C@H](O)c1ccc(O)c(O)c1 [EPINEPHRINE] | Not Active | Not Active |
| CN(Cc1cc(Br)cc(Br)c1N)C1CCCCC1 [BROMHEXINE] | Not Active | Not Active |
| COPPER(II) OXIDE | Not Active | Not Active |
| CC(C)Cc1ccc([C@H](C)C(=O)O)cc1 [DEXIBUPROFEN] | Not Active | Not Active |
| O=C(O)CCc1nc(-c2ccccc2)c(-c2ccccc2)o1 [OXAPROZIN] | Not Active | Not Active |
| Cc1cc(C(C)(C)C)c(O)c(C)c1CC1=NCCN1 [OXYMETAZOLINE] | Not Active | Not Active |

biological target: Prostaglandin G/H synthase 1 (Homo sapiens, UniProt P23219); experiment: biochemical; type: tissue-based, Platelet; settings: platelet;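 further: inhibition of COX-1 enzyme activity, with arachidonic acid supplied as substrate; in other assays of this panel Not Active means under 50% inhibition at 10 µM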
Sequence (P23219 whole entry): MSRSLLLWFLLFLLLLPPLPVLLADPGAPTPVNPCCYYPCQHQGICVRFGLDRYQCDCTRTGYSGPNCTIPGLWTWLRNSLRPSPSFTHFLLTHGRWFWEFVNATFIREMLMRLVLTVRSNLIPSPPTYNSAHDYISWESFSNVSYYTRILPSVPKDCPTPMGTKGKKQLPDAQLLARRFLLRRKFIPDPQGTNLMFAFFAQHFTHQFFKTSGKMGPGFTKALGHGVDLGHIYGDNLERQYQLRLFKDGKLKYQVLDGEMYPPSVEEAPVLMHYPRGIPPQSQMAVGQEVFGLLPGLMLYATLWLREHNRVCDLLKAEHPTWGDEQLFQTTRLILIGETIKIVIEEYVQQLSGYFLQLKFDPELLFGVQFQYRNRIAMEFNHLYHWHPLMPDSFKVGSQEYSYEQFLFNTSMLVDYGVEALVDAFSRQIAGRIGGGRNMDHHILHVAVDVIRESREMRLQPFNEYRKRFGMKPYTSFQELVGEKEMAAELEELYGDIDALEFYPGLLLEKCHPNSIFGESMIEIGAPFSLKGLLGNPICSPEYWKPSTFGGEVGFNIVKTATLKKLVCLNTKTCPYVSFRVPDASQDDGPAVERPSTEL

| Compound | IC50 | Ki |
| --- | --- | --- |
| O=C1c2ccccc2C(=O)C1c1ccccc1 [PHENINDIONE] | Not Active |  |
| Clc1cc(Cl)c(OCC#CI)cc1Cl [HALOPROGIN] | Not Active |  |
| C[C@H]1C[C@H]2[C@@H]3CCC4=CC(=O)C=C[C@]4(C)[C@@]3(F)[C@@H](O)C[C@]2(C)[C@@]1(O)C(=O)CO [BETAMETHASONE] | Not Active |  |
| COc1ccc(Cl)cc1C(=O)NCCc1ccc(S(=O)(=O)NC(=O)NC2CCCCC2)cc1 [GLYBURIDE] | Not Active |  |
| CC1(COc2ccc(CC3SC(=O)NC3=O)cc2)CCCCC1 (stereo unspecified) [CIGLITAZONE] | Not Active |  |
| Cc1ccnc2c1NC(=O)c1cccnc1N2C1CC1 [NEVIRAPINE] | Not Active |  |
| CNC[C@H](O)c1ccc(O)c(O)c1 [EPINEPHRINE] | Not Active |  |
| CN(Cc1cc(Br)cc(Br)c1N)C1CCCCC1 [BROMHEXINE] | Not Active |  |
| COPPER(II) OXIDE | Not Active | Not Active |
| Cc1cc(C(C)(C)C)c(O)c(C)c1CC1=NCCN1 [OXYMETAZOLINE] | Not Active |  |
